Results taken from article PMC12195836, “From Ethnopharmacology to Active Compound: Effects of Traditional Plant Extracts on Varicose Vein-Related Enzymes and Isolation of Active Flavonoids from Helichrysum plicatum DC. subsp. plicatum” (Pharmaceuticals, 2025).
Like-named read-outs stand apart in the source and are kept apart here.

Experiments:
collagenase = test: Collagenase inhibition, modified spectrophotometric method; type: biochemical
Experimental: (§1) All plant samples were macerated using 80% ethanol at room temperature for 5 days. Subsequently, filter paper was used to filter the samples, and the remaining filtrate was evaporated to dryness in a rotary evaporator (Büchi, Flawil, Switzerland). The extracts were weighed and dissolved in dimethyl sulfoxide (DMSO) to reach a concentration of 2 mg/mL, which was used in the in vitro experiments.
The enzyme inhibition assays conducted in this study included elastase, collagenase, hyaluronidase, XO, and prolyl POP inhibition and were performed using an ELISA microplate reader (Spectramax i3x microplate reader with Softmax® Pro Software for Windows 10; Molecular Devices, San Jose, USA). Elastase inhibition by the extracts was assessed using a modified spectrophotometric method based on Kraunsoe et al. (1996) and Lee et al. (2009). Collagenase inhibition was evaluated using the modified spectrophotometric method by Barrantes and Guinea 2003 [67], which was originally developed by Wart and Steinbrink (1981). The LOX inhibitory activities of the extracts were determined following the method of Chung et al. (2009), with minor modifications. XO inhibition was measured spectrophotometrically by monitoring the absorbance at 295 nm from uric acid formed during an enzymatic reaction. […]

[1] = Nitric oxide radical-scavenging activity
Experimental: as §1
The determination of the superoxide radical (O2^•−)-scavenging effect was conducted using the method described by Duh et al.. To assess the nitric oxide (NO)-scavenging effect, the method of Sreejayan and Rao was utilised with some modifications.

XO = conditions: cited from earlier work
xanthine oxidase (XO) = xanthine oxidase (XO) (Homo sapiens, UniProt P47989); test: XO enzyme inhibition, spectrophotometric (uric acid formation at 295 nm); type: biochemical
xanthine oxidase (XO), sequence (P47989 whole entry, species assumed): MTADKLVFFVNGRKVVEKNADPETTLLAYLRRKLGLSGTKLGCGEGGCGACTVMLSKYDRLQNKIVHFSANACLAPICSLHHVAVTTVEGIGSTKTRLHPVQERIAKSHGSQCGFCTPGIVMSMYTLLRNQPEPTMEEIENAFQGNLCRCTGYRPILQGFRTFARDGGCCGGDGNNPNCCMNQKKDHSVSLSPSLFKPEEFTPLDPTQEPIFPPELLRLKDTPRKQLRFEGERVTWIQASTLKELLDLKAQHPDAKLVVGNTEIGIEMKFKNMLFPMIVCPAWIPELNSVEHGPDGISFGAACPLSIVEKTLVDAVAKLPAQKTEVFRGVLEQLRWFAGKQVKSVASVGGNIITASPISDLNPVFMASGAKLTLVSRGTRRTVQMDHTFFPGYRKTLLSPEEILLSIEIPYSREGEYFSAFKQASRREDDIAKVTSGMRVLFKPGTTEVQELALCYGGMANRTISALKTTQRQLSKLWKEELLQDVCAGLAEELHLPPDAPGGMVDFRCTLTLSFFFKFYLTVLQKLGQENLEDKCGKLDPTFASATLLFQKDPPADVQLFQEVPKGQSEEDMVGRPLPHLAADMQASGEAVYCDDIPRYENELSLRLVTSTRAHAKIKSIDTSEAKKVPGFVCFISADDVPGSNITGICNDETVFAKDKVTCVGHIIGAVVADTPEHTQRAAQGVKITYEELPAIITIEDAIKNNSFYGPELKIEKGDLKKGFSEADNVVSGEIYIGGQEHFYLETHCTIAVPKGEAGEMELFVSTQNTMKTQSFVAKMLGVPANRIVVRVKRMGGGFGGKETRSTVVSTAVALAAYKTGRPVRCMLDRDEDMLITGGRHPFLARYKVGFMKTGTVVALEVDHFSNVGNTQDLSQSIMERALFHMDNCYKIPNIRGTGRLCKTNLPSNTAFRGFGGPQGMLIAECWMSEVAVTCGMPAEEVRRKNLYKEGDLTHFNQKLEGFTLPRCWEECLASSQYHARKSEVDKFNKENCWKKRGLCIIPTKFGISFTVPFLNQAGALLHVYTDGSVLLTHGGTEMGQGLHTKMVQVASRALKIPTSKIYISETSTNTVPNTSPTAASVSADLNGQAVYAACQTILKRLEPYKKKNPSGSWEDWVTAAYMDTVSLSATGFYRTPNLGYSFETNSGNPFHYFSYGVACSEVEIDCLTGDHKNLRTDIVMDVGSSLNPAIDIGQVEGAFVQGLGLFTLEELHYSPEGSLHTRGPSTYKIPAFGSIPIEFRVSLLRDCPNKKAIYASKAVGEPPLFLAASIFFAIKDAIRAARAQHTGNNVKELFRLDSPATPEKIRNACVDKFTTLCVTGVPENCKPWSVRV
Experimental: as §1
(§2) The enzyme inhibition assays conducted in this study included elastase, collagenase, hyaluronidase, XO, and prolyl POP inhibition and were performed using an ELISA microplate reader (Spectramax i3x microplate reader with Softmax® Pro Software for Windows 10; Molecular Devices, San Jose, USA).

POP enzyme = conditions: cited from earlier work
[2] = set-up: method as in earlier work; conditions: cited from earlier work
LOX = tested on: LOX; set-up: method as in PMID 27316769; conditions: dose-dependent; read-out: LOX inhibition IC50; cited from earlier work
hyaluronidase = test: Hyaluronidase enzyme inhibition assay; type: biochemical
Experimental: as §1, §2

In the case of `c1cnc2c(c1)ccc1cccnc12` [1,10-phenanthroline], the “Collagenase inhibition IC50” value (collagenase) is reported as 27.95 ± 0.3 µg/mL and the “Collagenase Enzyme Inhibition (% Inhibition ± S.D.), reference” value (collagenase; References (1 mg/mL)) is reported as 87.39 ± 2.85%.

In the case of `O=C1O[C@H]([C@@H](O)CO)C(O)=C1O` [Vitamin C], the “Nitric oxide radical-scavenging IC50” value [1] is reported as 25.28 ± 2.98 µg/mL and the “Nitric Oxide Radical-Scavenging Activity (% Inhibition ± S.D.), reference” value ([1]; Vitamin C (1 mg/mL)) is reported as 92.72 ± 0.10%.

For `Oc1ncnc2[nH]ncc12` [allopurinol, reference compound], the IC50 (XO; read-out: XO inhibition IC50) is listed as 4.05 µM, the inhibition at 25 µg/mL (xanthine oxidase (XO); read-out: XO Enzyme Inhibition (% Inhibition ± S.D.)) is listed as 91.6 ± 1.3% and the inhibition at 500 µg/mL (xanthine oxidase (XO); read-out: XO Enzyme Inhibition (% Inhibition ± S.D.), reference) is listed as 91.6 ± 1.3%.

In the case of `O=c1cc(-c2ccc(O)cc2)oc2cc(O)cc(O)c12` [apigenin], the IC50 (XO; competitive inhibitor, read-out: XO inhibition IC50) is given as 3.57 µM and the IC50 (xanthine oxidase (XO)) is given as 40.1 µM.

In the case of `COc1ccc2cc3[n+](cc2c1OC)CCc1cc2c(cc1-3)OCO2` [berberine], the IC50 (POP enzyme; read-out: POP inhibition IC50) is listed as 142 ± 21.5 µM.

For `O=c1cc(-c2ccc(O)c(O)c2)oc2cc(O)cc(O)c12` [luteolin], the “POP inhibition IC50” value (POP enzyme) is listed as 0.17 ppm, the IC50 (XO; flavonoids isolated from Blumea balsamifera L., read-out: XO inhibitory activity IC50) is listed as 2.38 ± 0.01 µM and the IC50 (XO; read-out: XO inhibition IC50) is listed as 0.96 µM. It also gave an IC50 (xanthine oxidase (XO)) of 49.8 µM.

For `O=C1C[C@@H](c2ccc(O)cc2)Oc2cc(O)cc(O)c21` [naringenin], the “inhibitory activity against the POP enzyme (in words)” value (POP enzyme) is given as “did not exhibit inhibitory activity”, the “inhibitory activity against XO (in words)” value (XO) is given as “moderate inhibitory activity” and the IC50 (XO; read-out: XO inhibition IC50) is given as 4.57 µM. The IC50 (xanthine oxidase (XO)) was 130 µM.

For `O=c1c(O)c(-c2ccc(O)c(O)c2)oc2cc(O)cc(O)c12` [quercetin], the “NO radical-scavenging activity IC50” value [2] is given as 0.16 ± 0.01 mg/mL.

For `Oc1ccc2c(c1)OCO2` [sesamol], the IC50 (LOX) is given as 51.8 µM.

With tannic acid the “Hyaluronidase inhibition IC50” value (hyaluronidase) was 2.31 ± 0.73 µg/mL and the “Hyaluronidase Enzyme Inhibition (% Inhibition ± S.D.), reference” value (hyaluronidase; References (1 mg/mL)) was 92.51 ± 3.53%.
